Laboratory results from ChEMBL document CHEMBL3832761, “MMV Pathogen Box Bioactivity Data” (2017).
Converted amounts (≈) assume the structure as drawn.

Legend:
Type in all cases: functional
[1] = tested on: Mycobacterium tuberculosis; assay: AntiMycobacterium tuberculosis activity Non-Replicating form: Average MIC90 (uM)
[2] = tested on: Mycobacterium tuberculosis; assay: AntiMycobacterium tuberculosis activity 1-week GAST/Fe MIC (uM); conditions: 168 h
[3] = tested on: Mycobacterium tuberculosis; assay: AntiMycobacterium tuberculosis activity 2-week GAST/Fe MIC (uM); conditions: 336 h
[4] = tested on: Mycobacterium tuberculosis; assay: AntiMycobacterium tuberculosis activity 1-week 7H9/ADC/Tw MIC (uM); conditions: 168 h
[5] = tested on: Mycobacterium tuberculosis; assay: AntiMycobacterium tuberculosis activity 2-week 7H9/ADC/Tw MIC (uM); conditions: 336 h
[6] = tested on: Mycobacterium tuberculosis; assay: AntiMycobacterium tuberculosis activity 2-week Alamar Blue 7H9/ADC/Tw MIC (uM); conditions: 336 h
[7] = tested on: Mycobacterium tuberculosis; assay: AntiMycobacterium tuberculosis activity 1-week 7H9/glucose/BSA/Tx MIC (uM); conditions: 168 h
[8] = tested on: Mycobacterium tuberculosis; assay: AntiMycobacterium tuberculosis activity 2-week 7H9/glucose/BSA/Tx MIC (uM); conditions: 336 h
[9] = tested on: Mycobacterium tuberculosis; assay: AntiMycobacterium tuberculosis activity 1-week 7H9/DPPC/cholesterol/BSA/Tx MIC (uM); conditions: 168 h
[10] = tested on: Mycobacterium tuberculosis; assay: AntiMycobacterium tuberculosis activity 2-week 7H9/DPPC/cholesterol/BSA/Tx MIC (uM); conditions: 336 h
[11] = tested on: Mycobacterium tuberculosis; assay: AntiMycobacterium tuberculosis activity 1-week 7H9/cholesterol/BSA/Tx MIC (uM); conditions: 168 h
[12] = tested on: Mycobacterium tuberculosis; assay: AntiMycobacterium tuberculosis activity 2-week Alamar Blue 7H9/cholesterol/BSA/Tx MIC (uM); conditions: 336 h
[13] = tested on: Mycobacterium tuberculosis; assay: (§1) AntiMycobacterium tuberculosis activity day 10 in 7H9/2.5mM butyrate/pH6/0.1mM nitrite MIC90 (uM); conditions: 240 h
[14] = tested on: Mycobacterium tuberculosis; assay: AntiMycobacterium tuberculosis activity day 21 in 7H9/2.5mM butyrate/pH6/0.1mM nitrite MIC90 (uM); conditions: 504 h
[15] = tested on: Mycobacterium tuberculosis; assay: as §1; conditions: 240 h; remark: listed apart in the source
[16] = tested on: Mycobacterium tuberculosis; assay: AntiMycobacterium tuberculosis activity day 21 MIC99 in 7H9/2.5mM butyrate/pH6/0.1mM nitrite MIC99 (uM); conditions: 504 h
[17] = tested on: Mycobacterium tuberculosis; assay: AntiMycobacterium tuberculosis activity Replicating form: Average MIC90 (uM)
HepG2 = assay: HepG2 CC50 (uM) Cytotoxicity; conditions: Homo sapiens

Work on `COc1ccc(OC(C)C(=O)Nc2ccc(Cl)cc2C)cc1` (stereo unspecified) yielded an MIC90 [1] of 12.2 µM (≈ 3.91 µg/mL), an MIC [2] of 2.3 µM (≈ 0.736 µg/mL) and an MIC [3] of 2.3 µM (≈ 0.736 µg/mL). It also gave an MIC [4] of 4.7 µM (≈ 1.5 µg/mL), an MIC [5] of 6.25 µM (≈ 2 µg/mL) and an MIC [6] of 6.25 µM (≈ 2 µg/mL). For the same compound, the MIC [7] was 9.4 µM (≈ 3.01 µg/mL), the MIC [8] was 9.4 µM (≈ 3.01 µg/mL) and the MIC [9] was 6.25 µM (≈ 2 µg/mL). For the same compound, the MIC [10] was 6.25 µM (≈ 2 µg/mL), the MIC [11] was 9.4 µM (≈ 3.01 µg/mL) and the MIC [12] was 12.5 µM (≈ 4 µg/mL). It also gave an MIC90 [13] of 25 µM (≈ 7.99 µg/mL), an MIC90 [14] of 25 µM (≈ 7.99 µg/mL) and an MIC90 [15] of over 50 µM. For the same compound, the MIC [16] was 50 µM (≈ 16 µg/mL), the MIC90 [17] was 14.6 µM (≈ 4.68 µg/mL) and the CC50 (HepG2) was over 100 µM.

Work on `Cn1c(=O)c2c(S(C)(=O)=O)snc2n(C)c1=O` yielded an MIC90 [1] of under 0.23 µM, an MIC [2] of 4.7 µM (≈ 1.29 µg/mL) and an MIC [3] of 6.25 µM (≈ 1.72 µg/mL). It also gave an MIC [4] of 19 µM (≈ 5.23 µg/mL), an MIC [5] of 25 µM (≈ 6.88 µg/mL) and an MIC [6] of 25 µM (≈ 6.88 µg/mL). For the same compound, the MIC [7] was 12.5 µM (≈ 3.44 µg/mL), the MIC [8] was 19 µM (≈ 5.23 µg/mL) and the MIC [9] was 19 µM (≈ 5.23 µg/mL). It also gave an MIC [10] of 37 µM (≈ 10.2 µg/mL), an MIC [11] of 25 µM (≈ 6.88 µg/mL) and an MIC [12] of 25 µM (≈ 6.88 µg/mL). It also gave an MIC90 [13] of 6.25 µM (≈ 1.72 µg/mL), an MIC90 [14] of 12.5 µM (≈ 3.44 µg/mL) and an MIC90 [15] of 12.5 µM (≈ 3.44 µg/mL). For the same compound, the MIC [16] was 12.5 µM (≈ 3.44 µg/mL), the MIC90 [17] was 15.4 µM (≈ 4.24 µg/mL) and the CC50 (HepG2) was 1.1 µM.

`CCCCc1ccc(C(=O)Nc2nccc3ccccc23)nc1` was tested, and the MIC90 [1] was 61 µM (≈ 18.6 µg/mL), the MIC [2] was 0.78 µM (≈ 0.238 µg/mL) and the MIC [3] was 1.56 µM (≈ 0.476 µg/mL). The MIC [4] was 4.7 µM (≈ 1.44 µg/mL), the MIC [5] was 6.25 µM (≈ 1.91 µg/mL) and the MIC [6] was 6.25 µM (≈ 1.91 µg/mL). The MIC [7] was 6.25 µM (≈ 1.91 µg/mL), the MIC [8] was 9.4 µM (≈ 2.87 µg/mL) and the MIC [9] was 2.3 µM (≈ 0.702 µg/mL). The MIC [10] was 4.7 µM (≈ 1.44 µg/mL), the MIC [11] was 0.78 µM (≈ 0.238 µg/mL) and the MIC [12] was 1.56 µM (≈ 0.476 µg/mL). It also gave an MIC90 [13] of 3.12 µM (≈ 0.953 µg/mL), an MIC90 [14] of 6.25 µM (≈ 1.91 µg/mL) and an MIC90 [15] of 3.12 µM (≈ 0.953 µg/mL). For the same compound, the MIC [16] was 6.25 µM (≈ 1.91 µg/mL), the MIC90 [17] was 39.1 µM (≈ 11.9 µg/mL) and the CC50 (HepG2) was 73.8 µM.

`CCC(Sc1nc2ccccc2o1)C(=O)Nc1nccs1` (stereo unspecified) was tested, and the MIC90 [1] was 1.38 µM (≈ 0.441 µg/mL), the MIC [2] was 37 µM (≈ 11.8 µg/mL) and the MIC [3] was 37 µM (≈ 11.8 µg/mL). The MIC [4] was 9.4 µM (≈ 3 µg/mL), the MIC [5] was 9.4 µM (≈ 3 µg/mL) and the MIC [6] was 9.4 µM (≈ 3 µg/mL). The MIC [7] was 9.4 µM (≈ 3 µg/mL), the MIC [8] was 12.5 µM (≈ 3.99 µg/mL) and the MIC [9] was 9.4 µM (≈ 3 µg/mL). For the same compound, the MIC [10] was 12.5 µM (≈ 3.99 µg/mL), the MIC [11] was 12.5 µM (≈ 3.99 µg/mL) and the MIC [12] was 12.5 µM (≈ 3.99 µg/mL). It also gave an MIC90 [13] of 6.25 µM (≈ 2 µg/mL), an MIC90 [14] of 6.25 µM (≈ 2 µg/mL) and an MIC90 [15] of 12.5 µM (≈ 3.99 µg/mL). The MIC [16] was 6.25 µM (≈ 2 µg/mL), the MIC90 [17] was 3.08 µM (≈ 0.984 µg/mL) and the CC50 (HepG2) was 13 µM.

`Cc1cnc(N2CCN[C@@H](Cc3ccccc3)C2)nc1Oc1ccc(-n2ccnc2)cc1` was tested, and the MIC90 [1] was 27.7 µM (≈ 11.8 µg/mL), the MIC [2] was 6.25 µM (≈ 2.67 µg/mL) and the MIC [3] was 9.4 µM (≈ 4.01 µg/mL). The MIC [4] was 25 µM (≈ 10.7 µg/mL), the MIC [5] was 37 µM (≈ 15.8 µg/mL) and the MIC [6] was 19 µM (≈ 8.1 µg/mL). It also gave an MIC [7] of 19 µM (≈ 8.1 µg/mL), an MIC [8] of 37 µM (≈ 15.8 µg/mL) and an MIC [9] of 12.5 µM (≈ 5.33 µg/mL). The MIC [10] was 37 µM (≈ 15.8 µg/mL), the MIC [11] was 12.5 µM (≈ 5.33 µg/mL) and the MIC [12] was 50 µM (≈ 21.3 µg/mL). It also gave an MIC90 [13] of over 50 µM, an MIC90 [14] of over 50 µM and an MIC90 [15] of over 50 µM. For the same compound, the MIC [16] was over 50 µM, the MIC90 [17] was 8.88 µM (≈ 3.79 µg/mL) and the CC50 (HepG2) was 14.1 µM.

Compound `CC(C)(C(=O)Nc1ccc(F)cc1)n1cc(-c2ccccc2F)cn1` has an MIC90 [1] of 3.6 µM (≈ 1.23 µg/mL), an MIC [2] of 2.3 µM (≈ 0.785 µg/mL) and an MIC [3] of 2.3 µM (≈ 0.785 µg/mL). It also gave an MIC [4] of 1.56 µM (≈ 0.533 µg/mL), an MIC [5] of 1.56 µM (≈ 0.533 µg/mL) and an MIC [6] of 2.3 µM (≈ 0.785 µg/mL). For the same compound, the MIC [7] was 3.13 µM (≈ 1.07 µg/mL), the MIC [8] was 3.13 µM (≈ 1.07 µg/mL) and the MIC [9] was 2.3 µM (≈ 0.785 µg/mL). The MIC [10] was 1.56 µM (≈ 0.533 µg/mL), the MIC [11] was 0.6 µM (≈ 0.205 µg/mL) and the MIC [12] was 1.56 µM (≈ 0.533 µg/mL). For the same compound, the MIC90 [13] was 6.25 µM (≈ 2.13 µg/mL), the MIC90 [14] was 6.25 µM (≈ 2.13 µg/mL) and the MIC90 [15] was 12.5 µM (≈ 4.27 µg/mL). For the same compound, the MIC [16] was 12.5 µM (≈ 4.27 µg/mL), the MIC90 [17] was 4.51 µM (≈ 1.54 µg/mL) and the CC50 (HepG2) was over 100 µM.

In the case of `Cc1cccc(Cn2ccc(NC(=O)c3ccc4c(c3)OCO4)n2)c1`, the MIC90 [1] is reported as 10.4 µM (≈ 3.48 µg/mL), the MIC [2] is reported as 0.2 µM (≈ 0.0671 µg/mL) and the MIC [3] is reported as 0.3 µM (≈ 0.101 µg/mL). It also gave an MIC [4] of 9.4 µM (≈ 3.15 µg/mL), an MIC [5] of 25 µM (≈ 8.38 µg/mL) and an MIC [6] of 12.5 µM (≈ 4.19 µg/mL). It also gave an MIC [7] of 12.5 µM (≈ 4.19 µg/mL), an MIC [8] of 25 µM (≈ 8.38 µg/mL) and an MIC [9] of 9.4 µM (≈ 3.15 µg/mL). It also gave an MIC [10] of 19 µM (≈ 6.37 µg/mL), an MIC [11] of 9.4 µM (≈ 3.15 µg/mL) and an MIC [12] of 9.4 µM (≈ 3.15 µg/mL). It also gave an MIC90 [13] of 25 µM (≈ 8.38 µg/mL), an MIC90 [14] of 50 µM (≈ 16.8 µg/mL) and an MIC90 [15] of 50 µM (≈ 16.8 µg/mL). It also gave an MIC [16] of 50 µM (≈ 16.8 µg/mL), an MIC90 [17] of 22.6 µM (≈ 7.58 µg/mL) and a CC50 (HepG2) of over 100 µM.
